This is an account of results in patent publication US20190116795A1, “USE OF TENVERMECTIN IN CONTROL OF HARMFUL INSECTS IN AGRICULTURAL AND FOREST CROPS” (ZHEJIANG HISUN PHARMACEUTICAL CO., LTD., priority 2016, published 2019).

Values after ≈ are worked out from the molar mass of the structure shown. Read-outs that look alike come from different tables or passages of the source.

For data set [1], the system named is zebrafish. The data set can be described thus: Toxicity test on zebrafish, semi-static method. Format: in vivo, Brachydanio rerio. The procedure:
Test fish and water: zebrafish (Brachydanio rerio) were purchased from Zhejiang Academy of Agricultural Sciences and were of uniform size with an average body length of 2-3 cm and an average body weight of 0.3 g. They were domesticated for 7 days indoors before the test. The natural mortality rate was zero. Feeding was stopped 1 day before the test and the fish were not fed during the test. The test water was tap water after removing residual chlorine by exposure to the sun for more than 24 hours, and the pH was 6.8.
The sample was formulated into 50 mg/ml mother liquor with DMF.
Method: Semi-static method. Three level differences were set for each sample:
0.5 ppm, 1.0 ppm and 2.0 ppm, and three sets of parallels were set for each level difference, 10 zebrafish were raised for each group, and blank controls (one group without agents and one group with only solvent) were set. The corresponding volume of mother liquor was taken according to the concentration as required for each sample, and the volume of each sample was adjusted to 150 μl with DMF, and then each sample was added to the test group (containing 1.6 L of water). The room temperature was controlled at 22±2° C. for 96 hours, and the water was changed every 24 hours and the samples were re-added. The fish mortality rate was recorded for the first 8 hours and at 24, 48, 72, and 96 hours, and the dead fish were removed in time. Finally, the agents were divided into three grades according to the values of LC50: low-toxic pesticides with a LC50>10 ppm, middle-toxic pesticides with a LC50 of 1.0-10 ppm, and high-toxic pesticides with a LC50<1.0 ppm.

Data set [2] has as its system Frankliniella occidentalis Pergande imagoes. The data set can be described thus: Indoor toxicity against Frankliniella occidentalis Pergande imagoes, impregnation method. Format: in vivo. To be noted: for LC50: Frankliniella occidentalis Pergande imagoes, impregnation, 48 hours after medication, 26 °C; for Relative toxicity: maximum LC50 divided by LC50 of each agent, imidacloprid = 1. From the text:
The impregnation method was used. […] The quantitative Frankliniella occidentalis Pergande (15-20 heads) in the suction trap were flicked into the solution in the insect box, and the solution was gently stirred with a glass rod for 10 seconds, and the insect box was quickly removed from the solution, and when the solution was drained out from the insect box, the residual solution on the copper net was blotted with absorbent paper from the bottom of the insect box, and then a 3 cm long kidney bean slice (Frankliniella occidentalis Pergande feed) was put into the insect box, and finally the insect box was sealed with a parafilm. […] The sealed insect box was placed in a HPG280H light incubator under a temperature of 26° C. and a humidity of 70%.

The test system of data set [3] is Bemisia tabaci imagoes. The data set can be described thus: Indoor toxicity against Bemisia tabaci imagoes, liquid membrane impregnation method of blades. Format: in vivo. To be noted: for Relative toxicity: maximum LC50 divided by LC50 of each agent, acetamiprid = 1. The procedure:
The liquid membrane impregnation method of blades was used. […] One tomato leaf was placed in each culture dish. Three repetitions per treatment, a leaf was soaked with water, dried, and then was placed in a culture dish to be used as a control. The Bemisia tabaci imagoes were gently patted into the culture dish, about 30 to 40 imagoes in each dish. The dishes were sealed with plastic wrap, several small holes were made on the plastic wrap to facilitate ventilation. After 24 hours, the death of Bemisia tabaci imagoes was checked under a binocular microscope (the anatomical needle was used to gently touch the Bemisia tabaci imagoes, and the motionless ones were regarded to be dead). Experimental data statistics and analysis were performed with spss 19 software.

In data set [4] the test system is Coptotermes formosanus Shiraki. The data set can be described thus: Indoor toxicity against Coptotermes formosanus Shiraki, topical drop with microinjector. Format: in vivo. The following applies: for Relative toxicity: maximum LC50 divided by LC50 of each agent, abamectin = 1. On the procedure:
Specifically, abamectin was diluted to 0.01 mg/L, 0.025 mg/L, 0.05 mg/L, 0.10 mg/L and 0.25 mg/L; tenvermectin A and tenvermectin B were diluted to 0.001 mg/L, 0.0025 mg/L, 0.005 mg/L, 0.01 mg/L and 0.025 mg/L. The termites to be tested were placed in culture dishes with a diameter of 15 cm, and 20 worker ants were placed in each dish. During the test, a microinjector was used to drop 1 μI of the solution to the thorax and abdome of each termite for a total of 3 repetitions. One fungus comb was placed in each dish for termites to inhabit and a wet absorbent cotton ball was placed to moisturize. After completing dropping the solution, the culture dish was placed in a chamber under a constant temperature of 18±1° C. and a constant humidity and was cultivated in dark conditions, the death conditions were observed 24 hours and 48 hours after dropping the solution respectively. A writing brush was used to touch the various parts of the bodies of the termites and the termites that are completely immobile were judged to be dead.

Data set [5] has as its system cabbage Phyllotreta. In words: Field efficacy test against cabbage Phyllotreta. Format: in vivo. To be noted: 1 day, 3 days and 7 days after medication. The procedure:
In the laboratory, the above-mentioned original medicines were respectively formulated into the following formulations for later use: 1.8% abamectin emulsifiable concentrate, 1.8% tenvermectin A emulsifiable concentrate, 1.8% tenvermectin B emulsifiable concentrate, 5% imidacloprid emulsifiable concentrate, 5% acetamiprid emulsifiable concentrate, 2.5% lambda-cyhalothrin emulsifiable concentrate.
The test was conducted in Linhai City, and the test crop was cabbage, and the object to be controlled was Phyllotreta.
The experiment consisted of 7 treatments, 3 replicates per treatment, 21 sections in total. The sections were randomly arranged, the area for each section was 66.7 m^2. A type of knapsack manual sprayer was used to spray once, the amount of each section was calculated according to the amount of 50 ml/mu, and the leaves were sprayed evenly. Each treatment was isolated from each other to avoid mutual interference. A blank control was set, and the blank control was sprayed with water. The population base of insects was investigated before medication, and the number of live insects was investigated 1 day, 3 days, and 7 days after medication, and a total of 4 investigations were conducted. 20 plants were randomly investigated per section. The rate of reduction of population was calculated and the control effect was corrected. No other pesticides were used during the test. […]

Data set [6] relates to Nilaparvata lugens imagoes. In words: Indoor toxicity against Nilaparvata lugens imagoes, soaking seedling method. Format: in vivo. To be noted: for LC50: Nilaparvata lugens imagoes, soaked rice seedlings, 72 hours, 26±1 °C; for Relative toxicity: maximum LC50 divided by LC50 of each agent, imidacloprid = 1. From the text:
Test insect source: the Nilaparvata lugens imagoes were collected from the rice field in Jiaxing, Zhejiang and were raised indoors with rice seedlings.
The soaking seedling method was used in this test.

Data set [7] relates to Laodelphax striatellus imagoes. In words: whole plant or invertebrate. The following applies: for Relative toxicity: maximum LC50 divided by LC50 of each agent, imidacloprid = 1. The procedure:
Each original medicine was dissolved in DMF and formulated into a 10000 mg/L solution for later use.
Test insect source: The Laodelphax striatellus imagoes were collected in the rice fields of Jiaxing, Zhejiang, and were raised indoors with rice seedlings.
The soaking seedling method was used in this test. The test agents were diluted with tap water into five series of concentrations on the basis of pre-test to be used as test solutions. Specifically, lambda-cyhalothrin and imidacloprid were diluted to 5 mg/L, 10 mg/L, 25 mg/L, 50 mg/L and 100 mg/L; abamectin was diluted to 0.25 mg/L, 0.5 Mg/L, 1.0 mg/L, 2.5 mg/L and 5.0 mg/L; tenvermectin A was diluted to 0.05 mg/L, 0.10 mg/L, 0.25 mg/L, 0.5 mg/L and 1.0 mg/L. Rice seedlings that are sown indoors for about 25 days and have no rice planthopper eggs were taken, a few rice roots were left, the seedlings were soaked in pre-formed solution for 30 seconds then they were taken out and dried, and were put into a 3 cm×20 cm test tube. There was a little water at the bottom of the tube. 2-3 rice seedlings per tube, three repetitions per treatment, and the one treated with water was used as a control. Each tube receives 40-50 heads of Laodelphax striatellus, and the tubes were sealed with black cloth and were placed in a worm room under a temperature of (26±1) ° C. After 72 hours of treatment, the number of dead insects was checked. […] Experimental data statistics and analysis were performed using spss 19 software.
The relative toxicity index of the agent having the largest LC50 was set to be 1, and the relative toxicity index of each agent was determined by dividing the maximum LC50 by the LC50 value of each agent.

Where [8] appears, read: Laodelphax striatellus, in Oryza sativa, 72 h.

In general, LC50 refers to the concentration lethal to half of the exposed cells or organisms. Take `CC[C@H](C)C1O[C@]2(C=C[C@@H]1C)C[C@@H]1C[C@@H](C/C=C(\C)[C@@H](O[C@H]3C[C@H](OC)[C@@H](O[C@H]4C[C@H](OC)[C@H](NC)[C@H](C)O4)[C@H](C)O3)[C@@H](C)/C=C/C=C3\CO[C@@H]4[C@H](O)C(C)=C[C@@H](C(=O)O1)[C@]34O)O2.O=C(O)c1ccccc1` (stereo partly shown) [Methylamino abamectin benzoate]: the “Surviving condition (survival rate %)” value in data set [1] (0.5 ppm, 8 h) is 0%; in data set [1] (1.0 ppm, 8 h) it was 0%; in data set [1] (2.0 ppm, 8 h), 0%. In data set [2], this molecule showed an LC50 of 0.318 µg/mL. This molecule also had a Relative toxicity in data set [2] of 122.896.
On to Milbemycin, for which the “Surviving condition (survival rate %)” value is listed as 0% in data set [1] (0.5 ppm, 8 h); 0% in data set [1] (1.0 ppm, 8 h); 0% in data set [1] (2.0 ppm, 8 h). The LC50 in data set [3] (in vivo) came out at 0.210 µg/mL. Moreover, in data set [3], the Relative toxicity was determined as 12.100.
In the case of Ivermectin, the “Surviving condition (survival rate %)” value in data set [1] (0.5 ppm, 8 h) worked out at 0%; in data set [1] (1.0 ppm, 8 h), 0%; in data set [1] (2.0 ppm, 8 h), 0%.
For `CC[C@H]1O[C@]2(CCC1C)C[C@@H]1C[C@@H](C/C=C(\C)C(OC3C[C@H](OC)C(OC4C[C@H](OC)C(O)[C@H](C)O4)[C@H](C)O3)C(C)/C=C/C=C3\CO[C@@H]4[C@H](O)C(C)=C[C@@H](C(=O)O1)[C@]34O)O2` (stereo partly shown) [Tenvermectin B, tenvermectin B], the “Surviving condition (survival rate %)” value in data set [1] (0.5 ppm, 8 h) amounted to 100%; in data set [1] (0.5 ppm, 24 h) it was 70%; in data set [1] (0.5 ppm, 48 h), 50%; in data set [1] (0.5 ppm, 72 h), 0%; in data set [1] (1.0 ppm, 8 h), 53%; in data set [1] (1.0 ppm, 24 h) it was 0%. The “Surviving condition (survival rate %)” value in data set [1] (2.0 ppm, 8 h) is listed as 10%; in data set [1] (2.0 ppm, 24 h), 0%. Also, the LC50 in data set [4] (in vivo) worked out at 0.0066 µg/mL (≈ 0.00779 µM). The molecule also displayed a Relative toxicity in data set [4] of 6.21. The “control effect on cabbage Phyllotreta (in words)” value in data set [5] was “no control effect”.
As for `O=[N+]([O-])NC1=NCCN1Cc1ccc(Cl)nc1` [Imidacloprid], the LC50 was found to be 39.1 µg/mL (≈ 153 µM) in data set [2] (read-out: LC50), 33.9 µg/mL (≈ 132 µM) in data set [6] (read-out: LC50) and 31.8 µg/mL (≈ 124 µM) in data set [7] (setting [8]). The Relative toxicity in data set [2], in data set [6] and in data set [7] was 1 throughout.
Regarding Abamectin, the “Surviving condition (survival rate %)” value in data set [1] (0.5 ppm, 8 h) was 0%; in data set [1] (1.0 ppm, 8 h) it was 0%; in data set [1] (2.0 ppm, 8 h), 0%. Moreover, the LC50 in data set [2] was 2.648 µg/mL; in data set [6] it was 3.062 µg/mL; in data set [7] (Laodelphax striatellus imagoes, soaked rice seedlings, 72 hours, 26±1 °C), 3.101 µg/mL; in data set [4] (Coptotermes formosanus worker ants, 1 μl dropped per termite, 18±1 °C, observed 24 and 48 hours (time of LC50 not stated)), 0.041 µg/mL; in data set [3] (Bemisia tabaci imagoes, soaked tomato leaves, death checked after 24 hours), 0.225 µg/mL. In addition, the Relative toxicity is listed as 14.759 in data set [2]; 11.063 in data set [6]; 10.260 in data set [7]; 1 in data set [4]; 11.293 in data set [3].
The molecule `C/C(=N\C#N)N(C)Cc1ccc(Cl)nc1` [Acetamiprid] returned an LC50 in data set [3] (Bemisia tabaci, in Solanum lycopersicum, 24 h) of 2.54 µg/mL (≈ 11.4 µM). The same molecule gave a Relative toxicity in data set [3] of 1.
Take `CC1(C)[C@H](C(=O)O[C@H](C#N)c2cccc(Oc3ccccc3)c2)[C@@H]1/C=C(\Cl)C(F)(F)F` (racemic) [Lambda-cyhalothrin]: the values for the LC50 in data set [6] (read-out: LC50) and in data set [7] (setting [8]) were 17.7 µg/mL (≈ 39.4 µM) and 12 µg/mL (≈ 26.7 µM), respectively. Moreover, the Relative toxicity in data set [6] was 1.923; in data set [7], 2.648.
